The values below come from BindingDB's records for doi:10.1016/S0960-894X(01)80865-9 (1993).

The target in the test is S-adenosylmethionine decarboxylase proenzyme (Escherichia coli) (UniProt P0A7F6). The test can be described thus: Tested for irreversible inhibitory activity against AdoMet-DC (S-adenosyl-methionine decarboxylase-) isolated from Escherichia coli.
Chain of S-adenosylmethionine decarboxylase proenzyme (Escherichia coli) (P0A7F6 whole entry, looked up): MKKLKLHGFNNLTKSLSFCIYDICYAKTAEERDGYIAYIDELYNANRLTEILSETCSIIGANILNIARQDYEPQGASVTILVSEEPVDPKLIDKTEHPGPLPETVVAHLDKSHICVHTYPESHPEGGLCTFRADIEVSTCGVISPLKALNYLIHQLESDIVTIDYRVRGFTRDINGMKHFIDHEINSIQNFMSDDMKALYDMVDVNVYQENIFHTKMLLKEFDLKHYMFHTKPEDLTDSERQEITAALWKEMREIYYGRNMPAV
The compound `Nc1ncnc2c1ncn2[C@@H]1O[C@H](CS[C@H]2CN[C@H](C(=O)O)C2)[C@@H](O)[C@H]1O` came in with a Ki of 960 µM.
The figure for `C[S+](C[C@H]1O[C@@H](n2cnc3c(N)ncnc32)[C@H](O)[C@@H]1O)C1CCNC1` (stereo not given in full) is 669 µM; for `Nc1ncnc2c1ncn2[C@@H]1O[C@H](CSC2CCNC2)[C@@H](O)[C@H]1O` (stereo not given in full) it is 415 µM.
As for `Nc1ncnc2c1ncn2[C@@H]1O[C@H](CS[C@@H]2CN[C@H](C(=O)O)C2)[C@@H](O)[C@H]1O`, the Ki is 478 µM.
The figure for `C[S+](C[C@H]1O[C@@H](n2cnc3c(N)ncnc32)[C@H](O)[C@@H]1O)C1C=C[C@H](N)C1` (stereo not given in full) is 18 µM.
